Laboratory results from PubChem BioAssay (NCI).
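96-well plates; 48 h exposure; 5 concentrations. Endpoints by linear interpolation between flanking doses. Not reached: highest tested concentration assigned. GI50 marks 50% less growth. TGI: total growth inhibition.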

Legend:
Test in all cases: growth of human tumour cells (NCI), 48 h
[1] = test system: SNB-78 CNS
[2] = test system: HOP-18 NSCLC
[3] = test system: M19-MEL melanoma
[4] = test system: KM20L2 colon
[5] = test system: XF 498 CNS
[6] = test system: DMS 114 small cell lung
[7] = test system: DMS 273 small cell lung
[8] = test system: LXFL 529 NSCLC
[9] = test system: MDA-N

| SMILES | TGI [1] | TGI [2] | TGI [3] | TGI [4] | TGI [5] | TGI [6] | TGI [7] | TGI [8] | TGI [9] | other results |
| --- | --- | --- | --- | --- | --- | --- | --- | --- | --- | --- |
| CN=c1ss/c(=N\C(=S)N(C)C)n1C1CCCCC1 | > 31.6 µM | > 31.6 µM | > 31.6 µM | > 31.6 µM | > 31.6 µM | > 31.6 µM | > 31.6 µM | > 31.6 µM |  |  |
| CN(C)CCCNC(=O)c1cccc2nc3ccccc3nc12 | > 71.6 µM | > 86.9 µM | 16.4 µM | > 100 µM | 2.1 µM | 30 µM | > 100 µM | > 95.2 µM |  |  |
| CC1=C(C(=O)Nc2cccc(C(F)(F)F)c2)C(c2ccccc2F)C(C(=O)Nc2cccc(C(F)(F)F)c2)=C(C)N1 | 65.6 µM |  | 21.3 µM | 18.4 µM | 14.6 µM | 14.2 µM |  | 19.2 µM |  |  |
| Nc1nc2c(c(=O)[nH]1)N=C(COP(=O)(O)OP(=O)(O)O)CN2 |  |  |  |  |  |  |  |  | > 100 µM |  |
| C=C(CS(=O)(=O)c1ccccc1)C(=O)OCC |  |  |  | 45.3 µM | 33.4 µM | 25.7 µM | 35.5 µM | 27 µM |  |  |
| O=C(NCCSSCCNC(=O)/C(Cc1ccc(O)c(Br)c1)=N/O)/C(Cc1ccc(O)c(Br)c1)=N/O |  |  |  |  |  |  |  |  | 6.99 µM |  |
| O=C(O)CC1C(=O)OC2C3COC(=O)c4cc(O)c(O)c(O)c4-c4c(cc(O)c(O)c4O)C(=O)OC2C(OC(=O)c2cc(O)c(O)c4c2C1C(O)C(=O)O4)C(OC(=O)c1cc(O)c(O)c(O)c1)O3 (stereo not given) |  |  |  |  |  |  |  |  | 50.1 µM |  |
| COc1ccc2oc(-c3cc4cc(OC)ccc4o3)cc2c1 | > 100 µM |  |  | > 100 µM | > 100 µM |  | > 100 µM | > 100 µM |  |  |
| COC(=O)[C@H]1CC(=O)C=C2CCCC21 (stereo not given in full) |  |  | > 100 µM |  | > 100 µM | > 100 µM | > 100 µM | > 100 µM |  |  |
| CC[C@@]1(OC(=O)C(N)CCC(=O)O)C(=O)OCc2c1cc1n(c2=O)Cc2cc3ccccc3nc2-1 (stereo not given in full) | > 100 µM |  | 1.49 µM | 5.08 µM | 2.04 µM | 4.42 µM | 0.29 µM | 5.75 µM |  |  |
| O=C(O)c1ccccc1-c1ccccc1C(=O)Nc1ccc2c(c1)Cc1ccccc1-2 |  |  |  |  |  |  |  |  | 77.1 µM |  |
| CC(C)(C)C1CCP(=O)(c2ccccc2)CC1 (stereo not given) | > 100 µM | > 100 µM | > 100 µM | > 100 µM | > 100 µM | > 100 µM | > 100 µM | > 100 µM |  |  |
| CC[C@@]1(O)C(=O)OCc2c1cc1n(c2=O)Cc2cc3c(Cl)c4c(cc3nc2-1)OCO4 |  |  |  |  |  |  |  |  | > 100 µM |  |
| Cc1cc2oc(=O)c(Cl)c(Cl)c2c(C)c1Cl |  |  |  |  |  |  |  |  | 10.8 µM |  |
| Cc1ccc(C)c(NC(=O)C(=O)CC(=O)c2cccc3ccccc23)c1 | > 100 µM | > 100 µM | > 100 µM | > 100 µM |  | > 100 µM | > 100 µM | > 100 µM |  |  |
| Cc1ccc2nc3sc(=O)sc3nc2c1 |  |  |  |  |  |  |  |  | 32 µM |  |
| Cc1cn(C2CC(N=[N+]=[N-])C(CO)O2)c(=O)[nH]c1=O (stereo not given) |  |  |  |  |  |  |  |  | > 1000 µM |  |
| CCOC(=O)C/C(N)=C(\C#N)C(=O)OCC | > 100 µM | > 100 µM | > 100 µM | > 100 µM | > 100 µM | > 100 µM | > 100 µM | > 100 µM |  |  |
| Cc1nn2c(=O)n(-c3cccc(-n4nnc5c(-c6ccccc6)c(C)nn5c4=O)c3C)nnc2c1-c1ccccc1 | > 100 µM | > 100 µM | > 100 µM | 42.1 µM | 40.1 µM | 30.2 µM | > 100 µM | > 100 µM |  |  |

| SMILES | TGI [1] | TGI [2] | TGI [3] | TGI [4] | TGI [5] | TGI [6] | TGI [7] | TGI [8] | TGI [9] | other results |
| --- | --- | --- | --- | --- | --- | --- | --- | --- | --- | --- |
| O=C1C=CC(=O)c2c1cc1ccccc1c2O | 10.5 µM | 32.3 µM | 11.3 µM | 40.2 µM | 8.39 µM |  | 29.5 µM | 3.99 µM | 18.5 µM |  |
| O=S1c2ccccc2N=C(c2ccc3ccccc3c2)CC1c1ccccc1F (stereo not given) |  | > 100 µM | > 100 µM | > 100 µM | > 100 µM | > 100 µM | > 100 µM | > 100 µM |  |  |
| NC(=O)c1ccccc1NC(=O)C(=O)Nc1n[nH]c(N)n1 | > 100 µM | > 100 µM | > 100 µM | > 100 µM | > 100 µM |  | > 100 µM | > 100 µM |  |  |
| CC(N)CN.CC(N)CN.[Cl-].[O]=[Os+2]=[O] (stereo not given) | > 100 µM | > 100 µM | 26.3 µM | > 100 µM |  | > 100 µM | > 100 µM | > 100 µM |  | GI50 [1]: > 100 µM; GI50 [2]: 25.9 µM; GI50 [3]: 7.59 µM; GI50 [4]: 89.6 µM; GI50 [6]: 47.6 µM; GI50 [7]: 43.1 µM; GI50 [8]: 53.1 µM |
| COc1cccc(C(C#N)NC23CC4CC(CC(C4)C2)C3)c1 (stereo not given) |  |  |  |  |  |  |  |  | > 100 µM |  |
| COc1ccc(/C=C/c2ccnc3ccccc23)cc1 |  |  |  |  |  |  |  |  | 31.6 µM |  |
| O=C1/C(=C\c2ccc([N+](=O)[O-])cc2)CS(=O)(=O)C/C1=C/c1ccc([N+](=O)[O-])cc1 |  |  |  |  |  |  |  |  | 1.63 µM | GI50 [9]: 0.305 µM |
| NC(Cn1ccc(=O)c(O)c1)C(=O)O (stereo not given) |  |  |  |  |  |  |  |  | > 100 µM |  |
| CN(C(=O)C12C3C4C1C1C2C3C41C(=O)N(C)C(C)(C)C)C(C)(C)C (stereo not given) | > 50 µM |  | > 50 µM | > 50 µM | > 50 µM | > 50 µM | > 50 µM | > 50 µM |  |  |
| O=c1c2cc(Br)ccc2[nH]c(=S)n1-c1ccccc1 | > 100 µM | > 100 µM | > 100 µM | > 100 µM |  |  | > 100 µM |  |  |  |
| O=C(O)/C(=C/c1ccccc1[N+](=O)[O-])c1cccs1 | > 100 µM | > 100 µM | > 100 µM | > 100 µM | > 100 µM |  | > 100 µM | > 100 µM |  |  |
| [CH3][Sn]([CH3])([CH3])[O]C(=O)C(O)c1ccccc1 (stereo not given) | > 100 µM | > 100 µM | 9.6 µM | 9.42 µM | 20.9 µM | 31.2 µM | 14 µM | > 28.4 µM | 15.9 µM | GI50 [1]: 42.7 µM; GI50 [2]: > 100 µM; GI50 [3]: 3.31 µM; GI50 [9]: 3.62 µM; GI50 [4]: 2.98 µM; GI50 [5]: 2.92 µM; GI50 [6]: 5.78 µM; GI50 [7]: 3.01 µM; GI50 [8]: 2.98 µM |
| CCOc1ccc(/C=N\N2C(=O)c3ccccc3C2=O)cc1 | > 100 µM | > 100 µM | > 100 µM | > 100 µM | > 100 µM | > 100 µM | > 100 µM | > 100 µM |  |  |
| CC1(C)C(=O)CCC(=O)C(C)(C)C2=CC=C(O2)C(C)(C)C(=O)CCC(=O)C(C)(C)C2=CC=C1O2 | > 100 µM | > 100 µM | > 100 µM | > 100 µM |  |  | > 100 µM | > 100 µM |  |  |
| COc1cc(-c2ccc(Nc3ccccc3C(=O)O)c(OC)c2)ccc1Nc1ccccc1C(=O)O | > 100 µM | > 100 µM |  | > 100 µM | > 100 µM | > 100 µM | > 100 µM | > 100 µM | 97.5 µM |  |
| O=S(=O)(CC(O)C(Cl)(Cl)Cl)NNc1ccccc1 (stereo not given) |  |  |  |  |  |  |  |  | > 100 µM |  |
| CC(=O)NC1CCCN(O)C(=O)/C=C(/C)CCOC(=O)C(NC(C)=O)CCCN(O)C(=O)/C=C(/C)CCOC(=O)C(NC(C)=O)CCCN(O)C(=O)/C=C(/C)CCOC1=O.[Fe] (stereo not given) |  |  |  |  |  |  |  |  | > 100 µM | GI50 [9]: > 100 µM |
| O=C(O)CN(CC(=O)O)c1ccccc1 |  |  |  |  |  |  |  |  | > 100 µM |  |
| CC(C)(C)C1CCC(CI)(N=[N+]=[N-])CC1 (stereo not given) | > 100 µM | > 100 µM | > 100 µM | > 100 µM | > 100 µM | > 100 µM | > 100 µM | > 100 µM |  |  |
